The structures appear in SMILES notation. Where two headings read alike, the source gives them in different places.

Series [1] relates to KB cells (human nasopharyngeal carcinoma-derived). The experiment in a line: MTT cell proliferation inhibition assay, KB cells. In kind it is cell-based. To be noted: for IC50: MTT assay, cultured 3 days, probit analysis, read-out: Inhibitory concentration against tumor cell lines in vitro IC50, KB; for cell proliferation inhibitory activity compared with 5-FU, KB cells: comparison of IC50 with control drug 5-FU. Here is the method: (§1) Regarding the synthesized triazolopyrimidine compounds, their cell proliferation inhibitory activities, as an index of antitumor acttivity, were examined. The test was performed by MTT assay (T. Mosmann, J. Immunol. Methods, 65, 55 (1983); M. B. Hansen, S. E. Nielsen and K. Berg, J. Immunol. Methods, 119, 203 (1989), which are incorporated by reference in their entirety.), and the cancer cells tested were CCRF-HSB-2 cells (human acute lymphoblastic leukemia) and KB cells (human […]). Cytarabine (Ara-C, cytarabine: 4-amino-1-β-D-arabinofuranosyl-2(1H)-one) and 5-fluorouracil (5-FU, 5-fluorouracil) were used as control drugs, which are antimetabolite anticancer agents used for, for example, acute leukemia and/or gastrointestinal cancer.
(§2) Human acute lymphoblastic leukemia cells (T-cells) CCRF-HSB-2 and human nasopharyngeal carcinoma-derived KB cells were cultured in RPMI 1640 medium supplemented with 10% fetal bovine serum.
(§3) Test agents were dissolved in dimethyl sulfoxide to become a concentration of 10 mg/ml and stored at 4° C. These solutions were diluted with MEM-Hanks medium and used for the assay.
(§4) • 1. 50 μl of the agent solution or MEM-Hanks medium was pre-filled in a 96-well plate. • 2. Cells in the logarithmic growth phase were harvested, and suspension of the cells was prepared such that the cell density is 1×10^5 cells/ml (5,000 cells/50 μl/well) and the serum concentration is 20%. The suspension 50 μl was seeded to each well. The cells were cultured in a carbon dioxide incubator at 37° C. for 3 days. • 3. After completion of the culture, 10 μl of MTT solution*(5 mg/ml in PBS-) was added to each well, and the cells were further cultured at 37° C. for 4 hours in a carbon dioxide incubator. *MTT solution: 1 g of MTT (Sigma M-2128) was dissolved in 200 ml of PBS-under light shielding, and the solution was filtrated using a 0.45 μm filter, and then stored at 4° C. If insoluble components precipitated during storage, filtration was performed again. • 4. After completion of the culture, 100 μl of 0.02 N HCl/50% N,N-dimethylformamide/20% SDS was added and stirred in each well to dissolve produced formazan. Its absorbance at 570 nm (test wavelength) and 690 nm (reference wavelength) was measured by a microplate reader (Tosoh MPR4Ai) and the proliferation inhibition rate was determined by the following formula. Inhibition rate (%)=(1−Tx/Cx)×100
(§5) Tx: Absorbance of wells containing sample
(§6) Cx: Absorbance of wells containing no sample (control) • 5. Inhibitory concentration showing 50% inhibition (IC50) of samples were determined by probit analysis using a computer software. [Evaluation]
On the technique in general: Tetrazolium assays rely on reduction of a dye to a coloured formazan, in cell work by metabolically active cells.

For series [2], the system named is CCRF-HSB-2 cells (human acute lymphoblastic leukemia). The experiment in a line: MTT cell proliferation inhibition assay, CCRF-HSB-2 cells. In kind it is cell-based. To be noted: for IC50: MTT assay, cultured 3 days, probit analysis, read-out: Inhibitory concentration against tumor cell lines in vitro IC50, CCRF-HSB-2; for cell proliferation inhibitory activity compared with 5-FU, CCRF-HSB-2 cells: comparison of IC50 with control drug 5-FU. How it is done:
as §1, §2, §3, §4, §5, §6

As for `Cc1c[nH]c(=O)n2nc(-c3ccncc3)nc12` [Compound 5q], the IC50 in series [1] was determined as 42.1 µM; in series [2], 28.7 µM.
Turning to `Cc1cnc(Cl)n2nc(-c3ccccc3)nc12` [Compound 6b], the “cell proliferation inhibitory activity compared with 5-FU, CCRF-HSB-2 cells” value in series [2] is “stronger cell proliferation inhibitory activity than 5-FU”.
`Cc1c[nH]c(=O)n2nc(-c3ccccc3Br)nc12` [Compound 5k]: the results for the IC50 in series [1] and in series [2] were 92.9 µM and 74.5 µM, respectively.
In the case of `Cc1cnc(Cl)n2nc(-c3ccc([N+](=O)[O-])cc3)nc12` [Compound 6f], the “cell proliferation inhibitory activity compared with 5-FU, KB cells” value in series [1] is on record as “stronger cell proliferation inhibitory activity than 5-FU”. The “cell proliferation inhibitory activity compared with 5-FU, CCRF-HSB-2 cells” value in series [2] was “stronger cell proliferation inhibitory activity than 5-FU”.
As for `O=c1[nH]cc(F)c2nc(-c3ccccc3)nn12` [Compound 9d], the IC50 was found to be 39 µM in series [1] and 22.3 µM in series [2].
As to `CCc1nc2c(F)c[nH]c(=O)n2n1` [Compound 9c], the IC50 in series [1] was 48.5 µM; in series [2], 58.2 µM.
As for `Cc1c[nH]c(=O)nc1NN=Cc1ccccc1` [Compound 3b], the IC50 in series [1] and in series [2] was above 100 µM in each case.
Regarding `Cc1c[nH]c(=O)n2nc(-c3ccc(Cl)cc3)nc12` [Compound 5i], the IC50 in series [1] stood at 50 µM; in series [2] it was 41.8 µM.
Consider `O=c1[nH]cc(F)c2nc(-c3ccc(Br)cc3)nn12` [Compound 9f], for which the IC50 was found to be 28.5 µM in series [1] and 31.5 µM in series [2].
For `Cc1c[nH]c(=O)n2nc(-c3ccccc3F)nc12` [Compound 5g], the IC50 in series [1] was 62.4 µM; in series [2] it was 48.8 µM.
`O=c1[nH]cc(F)c2nc(-c3ccc(Cl)c(Cl)c3)nn12` [Compound 9e]: the results for the IC50 in series [1] and in series [2] were 28.9 µM and 23.6 µM, respectively.
Consider `CCc1nnc2c(C)c[nH]c(=O)n12` [Compound 4a], for which the IC50 in series [1] was 82 µM; in series [2], 78 µM.
For `Cc1c[nH]c(=O)n2nc(-c3ccccc3)nc12` [Compound 5b], in that order: 57.1 µM and 48.6 µM.
For `COc1ccc(-c2nc3c(C)c[nH]c(=O)n3n2)cc1` [Compound 5d], the IC50 in series [1] and in series [2] was above 100 µM in each case.
`O=c1[nH]cc(F)c(=O)[nH]1` [Compound 5-FU, 5-fluorouracil, reference compound]: the IC50 worked out at 2.24 µM in series [1] (Homo sapiens, 72 h) and 2.74 µM in series [2] (Homo sapiens, 72 h).
`N#Cc1ccc(-c2nc3c(F)c[nH]c(=O)n3n2)cc1` [Compound 9g]: the figures for the IC50 in series [1] and in series [2] were 43.8 µM and 41.3 µM, respectively.
As for `Cc1c[nH]c(=O)n2c(-c3ccccc3)nnc12` [Compound 4b], the IC50 in series [1] and in series [2] was above 100 µM throughout.
As to `Nc1ccn([C@@H]2O[C@H](CO)[C@@H](O)[C@@H]2O)c(=O)n1` [AraC, 4-amino-1-β-D-arabinofuranosyl-2(1H)-one, reference compound], the IC50 was determined as 0.12 µM in series [1] (Homo sapiens, 72 h) and 0.021 µM in series [2] (Homo sapiens, 72 h).
For the compound `Cc1cnc(Cl)n2nc(-c3ccc(Cl)c(Cl)c3)nc12` [Compound 6j], the “cell proliferation inhibitory activity compared with 5-FU, CCRF-HSB-2 cells” value in series [2] was “stronger cell proliferation inhibitory activity than 5-FU”.
For `Cc1c[nH]c(=O)n2nc(-c3ccc4ccccc4c3)nc12` [Compound 5r], the figures for the IC50 in series [1] and in series [2] were above 100 µM and 99.1 µM, respectively.
For `COc1cc(OC)c(-c2nc3c(C)c[nH]c(=O)n3n2)c(OC)c1` [Compound 5e], the IC50 in series [1] and in series [2] was above 100 µM in each case.
Consider `Cc1c[nH]c(=O)n2nc(-c3ccc(C#N)cc3)nc12` [Compound 5m], for which the IC50 is 23.7 µM in series [1] and above 100 µM in series [2].
As to `Cc1cnc(Cl)n2nc(-c3ccc(C#N)cc3)nc12` [Compound 6m], in series [2], the “cell proliferation inhibitory activity compared with 5-FU, CCRF-HSB-2 cells” value was “stronger cell proliferation inhibitory activity than 5-FU”.
Take `Cc1c[nH]c(=O)n2nc(-c3cccnc3)nc12` [Compound 5p]: the results for the IC50 in series [1] and in series [2] were 77.5 µM and 59.4 µM, respectively.
On to `Cc1ccc(-c2nc3c(C)c[nH]c(=O)n3n2)cc1` [Compound 5c], for which the figures for the IC50 in series [1] and in series [2] were 42.9 µM and 63.1 µM, respectively.
Consider `Cc1c[nH]c(=O)n2nc(-c3ccc([N+](=O)[O-])cc3)nc12` [Compound 5f], for which, in series [1], the IC50 was 1.85 µM and the “cell proliferation inhibitory activity compared with 5-FU, KB cells” value is “stronger cell proliferation inhibitory activity than 5-FU”. The IC50 in series [2] came out at 71.6 µM.
In the case of `Cc1c[nH]c(=O)n2nc(-c3ccc(Cl)c(Cl)c3)nc12` [Compound 5j], the IC50 in series [1] was determined as 13.4 µM; in series [2], 15.2 µM.
For the compound `Cc1c[nH]c(=O)n2nc(-c3ccc(C(=O)O)cc3)nc12` [Compound 5n], the IC50 in series [1] and in series [2] was above 100 µM each time.
In the case of `Cc1c[nH]c(=O)n2nc(-c3ccc(F)cc3)nc12` [Compound 5h], the IC50 turned out to be 62.4 µM in series [1] and 55.5 µM in series [2].

The values above are taken from patent US12351583B2, “Triazolopyrimidines based on thymine nucleobase and methods for producing them” (TERA STONE CO., LTD, priority 2019, dated 2025).
